According to the NIST ThermoML archive (doi:10.1016/j.fluid.2007.12.007):
± gives the expanded uncertainty stated by the source.

Conditions: 101.33 kPa, Liquid

SMILES | speed of sound (293.15 K) [m/s] | viscosity (293.15 K) [mPa·s] | speed of sound (298.15 K) [m/s] | viscosity (298.15 K) [mPa·s] | speed of sound (303.15 K) [m/s] | viscosity (303.15 K) [mPa·s] | speed of sound (308.15 K) [m/s] | viscosity (308.15 K) [mPa·s] | speed of sound (313.15 K) [m/s] | viscosity (313.15 K) [mPa·s] | speed of sound (318.15 K) [m/s] | viscosity (318.15 K) [mPa·s]
CC(O)CCO (centres undefined) [1,3-butanediol] | 1539.6 ± 3.3 | 130.32 ± 11 | 1523.4 ± 3.2 | 97.26 ± 5.9 | 1506.3 ± 3.2 | 69.84 ± 2.3 | 1492.5 ± 3.2 | 52.54 ± 0.69 | 1480.8 ± 3.2 | 39.42 ± 0.95 | 1470.3 ± 3.2 | 30.51 ± 0.75
NC=O [formamide] | 1615.8 ± 3.3 | 3.654 ± 0.081 | 1601 ± 3.3 | 3.322 ± 0.074 | 1589.2 ± 3.3 | 2.966 ± 0.067 | 1577.2 ± 3.3 | 2.653 ± 0.06 | 1565.1 ± 3.2 | 2.404 ± 0.055 | 1553.1 ± 3.2 | 2.219 ± 0.051
